Test results as given in patent US10059713B2 (Takeda Pharmaceutical Company Limited, priority 2014, dated 2018).

target: human GPR43 (Homo sapiens (Human), UniProt O15552); test: Ca-Flux functional assay: determination of agonist/positive allosteric modulator (PAM) activity; assay type: cell-based; settings: CHO-K1 Gα16 cells stably expressing human GPR43; compound added with EC20 sodium acetate; intracellular Ca2+ by FLIPR; does not distinguish agonist from PAM
In short: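 CHO-K1 Gα16 cells stably expressing human GPR43, loaded with Calcium 5 dye 1 h; compounds (10-point half-log from 10 μM) added with sodium acetate at EC20. FLIPR calcium signal gave EC50, two wells per point; agonists and PAMs not distinguished.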

human GPR43, sequence (O15552 whole entry): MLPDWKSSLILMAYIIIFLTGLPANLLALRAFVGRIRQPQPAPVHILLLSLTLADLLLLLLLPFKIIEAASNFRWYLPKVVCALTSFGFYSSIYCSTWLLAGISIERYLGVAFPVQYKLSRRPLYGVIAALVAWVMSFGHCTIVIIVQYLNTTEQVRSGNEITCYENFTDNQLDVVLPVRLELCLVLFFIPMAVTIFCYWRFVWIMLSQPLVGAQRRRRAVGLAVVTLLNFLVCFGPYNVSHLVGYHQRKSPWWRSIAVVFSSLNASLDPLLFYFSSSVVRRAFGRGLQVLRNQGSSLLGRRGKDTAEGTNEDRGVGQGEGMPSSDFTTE

SMILES | EC50 [nM]
CCN(CC)c1ncnc2c(S(=O)(=O)c3ccccc3)c(N)[nH]c12 [Example 94, 7-(benzenesulfonyl)-4-N,4-N-diethyl-5H-pyrrolo[3,2-d]pyrimidine-4,6-diamine] | 61
Cc1nc(OC(C)C)c2[nH]c(N)c(S(=O)(=O)c3ccccc3)c2n1 [Example 242, 7-(benzenesulfonyl)-2-methyl-4-(propan-2-yloxy)-5H-pyrrolo[3,2-d]pyrimidin-6-amine] | 51
CC(Oc1ncnc2c(S(=O)(=O)c3ccccc3)c(N)[nH]c12)c1ccccc1 (stereo not shown) [Example 164, 7-(benzenesulfonyl)-4-(1-phenylethoxy)-5H-pyrrolo[3,2-d]pyrimidin-6-amine] | 25
Cc1nc(OCC2CC2(C)C)c2[nH]c(N)c(S(=O)(=O)c3ccccc3)c2n1 (stereo not shown) [Example 245, 7-(benzenesulfonyl)-4-[(2,2-dimethylcyclopropyl)methoxy]-2-methyl-5H-pyrrolo[3,2-d]pyrimidin-6-amine] | 57
CCC1(C)CN(c2ncnc3c(S(=O)(=O)c4ccccc4)c(N)[nH]c23)CCO1 (stereo not shown) [Example 221, 7-(benzenesulfonyl)-4-(2-ethyl-2-methylmorpholin-4-yl)-5H-pyrrolo[3,2-d]pyrimidin-6-amine] | 104
Cc1nc(N2C[C@@H](C)OC[C@H]2C)c2[nH]c(N)c(S(=O)(=O)c3ccccc3)c2n1 [Example 217, 7-(benzenesulfonyl)-4-[(2R,5R)-2,5-dimethylmorpholin-4-yl]-2-methyl-5H-pyrrolo[3,2-d]pyrimidin-6-amine] | 6
Cc1cccc(S(=O)(=O)c2c(N)[nH]c3c(N4CCOC(C)C4)ncnc23)c1 (stereo not shown) [Example 121, 7-(3-methylbenzenesulfonyl)-4-(2-methylmorpholin-4-yl)-5H-pyrrolo[3,2-d]pyrimidin-6-amine] | 67
Nc1[nH]c2c(C3=CCCCC3)ncnc2c1S(=O)(=O)C1CCCCC1 [Example 50, 4-(cyclohex-1-en-1-yl)-7-(cyclohexanesulfonyl)-5H-pyrrolo[3,2-d]pyrimidin-6-amine] | 80
Nc1[nH]c2c(C3CCCCC3)ncnc2c1S(=O)(=O)c1cccc(F)c1 [Example 39, 4-cyclohexyl-7-[(3-fluorobenzene)sulfonyl]-5H-pyrrolo[3,2-d]pyrimidin-6-amine] | 80
COc1ccccc1CN(C)c1ncnc2c(S(=O)(=O)c3ccccc3)c(N)[nH]c12 [Example 92, 7-(benzenesulfonyl)-4-N-[(2-methoxyphenyl)methyl]-4-N-methyl-5H-pyrrolo[3,2-d]pyrimidine-4,6-diamine] | 209
CC1(COc2ncnc3c(S(=O)(=O)c4ccccc4)c(N)[nH]c23)CC1 [Example 173, 7-(benzenesulfonyl)-4-[(1-methylcyclopropyl)methoxy]-5H-pyrrolo[3,2-d]pyrimidin-6-amine] | 364
Nc1[nH]c2c(OCC3CCOC3)ncnc2c1S(=O)(=O)c1ccccc1 (stereo not shown) [Example 119, 7-(benzenesulfonyl)-4-(oxolan-3-ylmethoxy)-5H-pyrrolo[3,2-d]pyrimidin-6-amine] | 2960
CNc1nc(N2CCOC(C)C2)c2[nH]c(N)c(S(=O)(=O)c3ccccc3F)c2n1 (stereo not shown) [Example 298, 7-(2-fluorobenzenesulfonyl)-N2-methyl-4-(2-methylmorpholin-4-yl)-5H-pyrrolo[3,2-d]pyrimidine-2,6-diamine] | 5
CC1CN(c2ncnc3c(S(=O)(=O)Cc4ccccc4)c(N)[nH]c23)CCO1 (stereo not shown) [Example 125, 4-(2-methylmorpholin-4-yl)-7-phenylmethanesulfonyl-5H-pyrrolo[3,2-d]pyrimidin-6-amine] | 5520
Nc1[nH]c2c(OC3CCCC3)ncnc2c1S(=O)(=O)c1ccccc1 [Example 202, 7-(benzenesulfonyl)-4-(cyclopentyloxy)-5H-pyrrolo[3,2-d]pyrimidin-6-amine] | 50
Cc1nc(N2CCO[C@@H](C(F)(F)F)C2)c2[nH]c(N)c(S(=O)(=O)c3ccc(Cl)cc3F)c2n1 [Example 297, 7-(4-chloro-2-fluorobenzenesulfonyl)-2-methyl-4-[(2R)-2-(trifluoromethyl)morpholin-4-yl]-5H-pyrrolo[3,2-d]pyrimidin-6-amine] | 2
